Test results taken from patent US20090191173A1, “Induction Of Neurogenesis And Stem Cell Therapy In Combination With Copolymer 1” (priority 2004, published 2009).

How the values were obtained:
aNPCs = test: Neuronal differentiation of aNPCs with CD4+ T cells, T cell-conditioned medium or cytokines; format: cell-based, mouse; conditions: 5 days in culture with cytokine, concentrations as low as 1 ng/ml
Method: (xvii) Co-culturing of neural progenitor cells and T cells. CD4+ T cells were purified from lymph nodes of 8-week-old C57B16/J mice as previously described (Kipnis et al., 2004). T cells were activated in RPMI medium supplemented with L-glutamine (2 mM), 2-mercaptoethanol (5×10^−5 M), sodium pyruvate (1 mM), penicillin (100 IU/ml), streptomycin (100 μg/ml), nonessential amino acids (1 ml/100 ml), and autologous serum 2% (v/v) in the presence of mouse recombinant IL-2 (mrIL-2; 5 ng/ml) and soluble anti-CD28 and anti-CD3. antibodies (1 ng/ml). T cells were co-cultured (5×10^4 cells/well) with aNPCs (5×10^4 cells/well) for 5 d on cover slips coated with Matrigel (BD Biosciences) in 24-well plates. The cultures were then fixed with 2.5% paraformaldehyde in PBS for 30 min at room temperature and stained for neuronal markers.
We therefore sought to determine whether direct interaction between aNPCs and T cells would also result in an altered pattern of aNPC differentiation. To address this question, we activated CD4+ T cells in vitro by a cognate protocol (with anti-CD3 antibodies, anti-CD28 antibodies, and IL-2) for 24 h and then allowed their activation to continue in co-cultures with aNPCs in a transwell culture system. […] After 5 days in culture the aNPCs in the lower chamber were fixed and analyzed for the appearance of newly formed neurons. […]

[1] = test system: neural progenitor cells (NPCs); test: Neurogenesis from NPCs co-cultured with microglia pre-activated by aggregated Aβ and cytokines; format: cell-based, mouse; conditions: 10 days; Aβ 5 μM 48 h, cytokines 10 ng/ml
Method: (xx) Reagents. Recombinant mouse IFN-γ and IL-4 (both containing endotoxin at a concentration below 0.1 ng/μg cytokine) were obtained from R&D Systems (Minneapolis, Minn.). β-amyloid peptides [amyloid protein fragment 1-40 and 1-42 (Aβ1-40/1-42)] were purchased from Sigma-Aldrich, St. Louis, Mo. The Aβ peptides were dissolved in endotoxin-free water, and Aβ aggregates were formed by incubation of Aβ, as described (Ishii et al., 2000). (xxv) Neural progenitor cell culture. Coronal sections (2 mm thick) of tissue containing the subventricular zone of the lateral ventricle were obtained from the brains of adult C57B1/6J mice. […] After centrifugation at 110×g for 15 min at room temperature, the tissue was mechanically dissociated by pipette trituration. Cells obtained from single-cell suspensions were plated (3500 cells/cm^2) in 75-cm^2 Falcon tissue-culture flasks (BD Biosciences, San Diego, Calif.), in NPC-culturing medium [Dulbecco's modified Eagles's medium (DMEM)/F12 medium (Gibco/Invitrogen, Carlsbad, Calif.) containing 2 mM L-glutamine, 0.6% glucose, 9.6 μg/ml putrescine, 6.3 ng/ml progesterone, 5.2 ng/ml sodium selenite, 0.02 mg/ml insulin, 0.1 mg/ml transferrin, 2 μg/ml heparin (all from Sigma-Aldrich, Rehovot, Israel), fibroblast growth factor-2 (human recombinant, 20 ng/ml), and epidermal growth factor (human recombinant, 20 ng/ml; both from Peprotech, Rocky Hill, N.J.)]. Spheres were passaged every 4-6 days and replated as single cells. Green fluorescent protein (GFP)-expressing NPCs were obtained as previously described (Pluchino et al., 2003). (xxvi) Primary microglial culture. Brains from neonatal (P0-P1) C57B1/6J mice were stripped of their meninges and minced with scissors under a dissecting microscope (Zeiss, Stemi DV4, Germany) in Leibovitz-15 medium (Biological Industries, Kibbutz Beit Ha-Emek, Israel). […] The cell suspension was washed in culture medium for glial cells [DMEM supplemented with 10% fetal calf serum (FCS; Sigma-Aldrich, Rehovot), L-glutamine (1 mM), sodium pyruvate (1 mM), penicillin (100 U/ml), and streptomycin ([…])] and cultured at 37° C./5% CO2 in 75-cm^2 Falcon tissue-culture flasks (BD Biosciences) coated with poly-D-lysine (PDL) (10 mg/ml; Sigma-Aldrich, Rehovot) in borate buffer (2.37 g borax and 1.55 g boric acid dissolved in 500 ml sterile water, pH 8.4) for 1 h, then rinsed thoroughly with sterile, glass-distilled water. Half of the medium was changed after 6 h in culture and every 2nd day thereafter, starting on day 2, for a total culture time of 10-14 days. […]

Substance: IL-4: recombinant interleukin-4
- β-III-tubulin expression in aNPCs (aNPCs): no change in β-III-tubulin expression
- neurogenesis (GFP+/βIIIT+ cells) from NPCs co-cultured with treated microglia [1]: partially counteracted the adverse effect of the aggregated Aβ
